Twelve compounds from patent US20220389061A1, “IMMUNOMODULATORS” (priority 2019, published 2022) can be followed below.

Starred links: 1 amine or outer side, 2 acyl side, 3 side chain; linkers in the order of their positions; H or OH if unused. Positions of bridges follow the written chain, without caps; N, C: chain ends. Non-standard residues stand in square brackets, D forms with d. Residues, ends and D or L forms follow the SMILES beside them. Groups on a side chain read outwards from the residue. *: point of attachment. Trp(1-CH2COOH) = N[C@@H](Cc1cn(CC(=O)O)c2ccccc12)C(=O)O; X66 = O=C([C@H](CCN/C(=N/c1ccccc1)c1ccccc1)N[*:1])[*:2]; X57 = O=C([C@H](CN/C(=N/c1ccccc1)c1ccccc1)N[*:1])[*:2]; X41 = N=C(NCC[C@H](N[*:1])C(=O)[*:2])c1ccccc1; X40 = N=C(NC[C@H](N[*:1])C(=O)[*:2])c1ccccc1; X83 = FC(F)(F)c1cc(N*)cc(C(F)(F)F)c1; X13 = O=[N+]([O-])c1ccc(NC(=S)*)cc1; Hyp = O=C(O)[C@@H]1C[C@@H](O)CN1; X29 = c1ccc(Oc2ccc(N*)cc2)cc1; X36 = c1ccc(Oc2cccc(N*)c2)cc1; X87 = FC(F)(F)c1ccccc1NC(=S)*; NMeNle = CCCC[C@H](NC)C(=O)O; X86 = CCOc1ccc(NC(=S)*)cc1; NMeA = CN[C@@H](C)C(=O)O; Dab = NCC[C@H](N)C(=O)O; Dap = NC[C@H](N)C(=O)O; X21 = S=C(Nc1ccccn1)*; CO = O=C([*:1])[*:2]

T1 sequence (Q9NZQ7 18-239): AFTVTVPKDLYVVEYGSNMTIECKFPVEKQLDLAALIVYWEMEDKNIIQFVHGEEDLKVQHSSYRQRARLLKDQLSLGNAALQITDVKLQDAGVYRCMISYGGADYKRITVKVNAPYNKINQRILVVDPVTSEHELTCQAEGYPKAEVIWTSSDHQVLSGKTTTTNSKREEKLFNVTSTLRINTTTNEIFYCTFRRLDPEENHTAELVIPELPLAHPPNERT

The first assay has as its target T1, PD-1/PD-L1 (Homo sapiens, UniProt Q9NZQ7).
T1 construct: TVMV protease site linker (C); made in house; host or cells: HEK293T cells
The assay is described as follows: PD-1/PD-L1 Homogenous Time-Resolved Fluorescence (HTRF) binding assay.
Conditions: not given
The source says:
The ability of the compounds of formula (I) to bind to PD-L1 was investigated using a PD-1/PD-L1 Homogenous Time-Resolved Fluorescence (HTRF) binding assay.
The interaction of PD-1 and PD-L1 can be assessed using soluble, purified preparations of the extracellular domains of the two proteins. The PD-1 and PD-L1 protein extracellular domains were expressed as fusion proteins with detection tags, for PD-1, the tag was the Fc portion of Immunoglobulin (PD-1-Ig) and for PD-L1 it was the 6 histidine motif (PD-L1-His). All binding studies were performed in an HTRF assay buffer consisting of dPBS supplemented with 0.1% […] bovine serum albumin and 0.05% (v/v) Tween-20. For the h/PD-L1-His binding assay, inhibitors were pre-incubated with PD-L1-His (10 nM final) for 15 m in 4 μl of assay buffer, followed by addition of PD-1-Ig (20 nM final) in 1 μl of assay buffer and further incubation for 15 m. HTRF detection was achieved using europium crypate-labeled anti-Ig (1 nM final) and allophycocyanin (APC) labeled anti-His (20 nM final). Antibodies were diluted in HTRF detection buffer and 5 μl was dispensed on top of the binding reaction. […] Additional binding assays were established between the human proteins PD-1-Ig/PD-L2-His (20 & 5 nM, respectively) and CD80-His/PD-L1-Ig (100 & 10 nM, respectively). […]
Background: Time-resolved FRET reads energy transfer from a long-lived donor to a nearby acceptor.
Usually IC50 stands for the midpoint of a concentration-inhibition curve. Take `CCCC[C@H]1C(=O)N(C)[C@@H](CCCC)C(=O)N[C@@H](CC(C)C)C(=O)N[C@H](C(=O)NCC(N)=O)CSCC(=O)N[C@@H](Cc2ccc(O)cc2)C(=O)N(C)[C@@H](C)C(=O)N[C@@H](CC(N)=O)C(=O)N2CCC[C@H]2C(=O)N[C@@H](CNC(=S)Nc2ccc([N+](=O)[O-])cc2)C(=O)N[C@@H](CC(C)C)C(=O)N2C[C@H](O)C[C@H]2C(=O)N[C@@H](Cc2c[nH]c3ccccc23)C(=O)N[C@@H](CCNC(=S)Nc2ccc([N+](=O)[O-])cc2)C(=O)N[C@@H](Cc2cn(CC(=O)O)c3ccccc23)C(=O)N1C` [Example 1025] ({CH2CO}-Y[NMeA]NP[Dap](X13)L[Hyp]W[Dab](X13)[Trp(1-CH2COOH)][NMeNle][NMeNle]LCG-NH2; thioether N-14): the half-maximal inhibitory concentration (IC50) was 0.8 nM.

Still in this assay, the particulars now being: PD-L1-His 10 nM pre-incubated with inhibitor, PD-1-Ig 20 nM; read-out: HTRF IC50.
Consider `CCCC[C@H]1C(=O)N(C)[C@@H](CCCC)C(=O)N[C@@H](CC(C)C)C(=O)N[C@H](C(=O)NCC(N)=O)CSCC(=O)N[C@@H](Cc2ccc(O)cc2)C(=O)N(C)[C@@H](C)C(=O)N[C@@H](CC(N)=O)C(=O)N2CCC[C@H]2C(=O)N[C@@H](CNC(=O)Nc2cc(C(F)(F)F)cc(C(F)(F)F)c2)C(=O)N[C@@H](CC(C)C)C(=O)N2C[C@H](O)C[C@H]2C(=O)N[C@@H](Cc2c[nH]c3ccccc23)C(=O)N[C@@H](CCNC(=O)Nc2cc(C(F)(F)F)cc(C(F)(F)F)c2)C(=O)N[C@@H](Cc2cn(CC(=O)O)c3ccccc23)C(=O)N1C` [Example 1015] ({CH2CO}-Y[NMeA]NP[Dap]([CO-X83])L[Hyp]W[Dab]([CO-X83])[Trp(1-CH2COOH)][NMeNle][NMeNle]LCG-NH2; thioether N-14), for which the IC50 amounted to 274 nM. `CCCC[C@H]1C(=O)N(C)[C@@H](CCCC)C(=O)N[C@@H](CC(C)C)C(=O)N[C@H](C(=O)NCC(N)=O)CSCC(=O)N[C@@H](Cc2ccc(O)cc2)C(=O)N(C)[C@@H](C)C(=O)N[C@@H](CC(N)=O)C(=O)N2CCC[C@H]2C(=O)N[C@@H](CNC(=S)Nc2ccccc2C(F)(F)F)C(=O)N[C@@H](CC(C)C)C(=O)N2C[C@H](O)C[C@H]2C(=O)N[C@@H](Cc2c[nH]c3ccccc23)C(=O)N[C@@H](CCNC(=S)Nc2ccccc2C(F)(F)F)C(=O)N[C@@H](Cc2cn(CC(=O)O)c3ccccc23)C(=O)N1C` [Example 1016] ({CH2CO}-Y[NMeA]NP[Dap](X87)L[Hyp]W[Dab](X87)[Trp(1-CH2COOH)][NMeNle][NMeNle]LCG-NH2; thioether N-14): the IC50 worked out at 3 nM. On the same count and under the same terms, the value for `CCCC[C@H]1C(=O)N(C)[C@@H](CCCC)C(=O)N[C@@H](CC(C)C)C(=O)N[C@H](C(=O)NCC(N)=O)CSCC(=O)N[C@@H](Cc2ccc(O)cc2)C(=O)N(C)[C@@H](C)C(=O)N[C@@H](CC(N)=O)C(=O)N2CCC[C@H]2C(=O)N[C@@H](CN/C(=N/c2ccccc2)c2ccccc2)C(=O)N[C@@H](CC(C)C)C(=O)N2C[C@H](O)C[C@H]2C(=O)N[C@@H](Cc2c[nH]c3ccccc23)C(=O)N[C@@H](CCN/C(=N/c2ccccc2)c2ccccc2)C(=O)N[C@@H](Cc2cn(CC(=O)O)c3ccccc23)C(=O)N1C` [Example 1017] ({CH2CO}-Y[NMeA]NP[X57]L[Hyp]W[X66][Trp(1-CH2COOH)][NMeNle][NMeNle]LCG-NH2; thioether N-14) was 7.5 nM. On to `CCCC[C@H]1C(=O)N(C)[C@@H](CCCC)C(=O)N[C@@H](CC(C)C)C(=O)N[C@H](C(=O)NCC(N)=O)CSCC(=O)N[C@@H](Cc2ccc(O)cc2)C(=O)N(C)[C@@H](C)C(=O)N[C@@H](CC(N)=O)C(=O)N2CCC[C@H]2C(=O)N[C@@H](CN/C(=N/c2ccccc2)c2ccccc2)C(=O)N[C@@H](CC(C)C)C(=O)N2C[C@H](O)C[C@H]2C(=O)N[C@@H](Cc2c[nH]c3ccccc23)C(=O)N[C@@H](CCN)C(=O)N[C@@H](Cc2cn(CC(=O)O)c3ccccc23)C(=O)N1C` [Example 1018] ({CH2CO}-Y[NMeA]NP[X57]L[Hyp]W[Dab][Trp(1-CH2COOH)][NMeNle][NMeNle]LCG-NH2; thioether N-14), for which the half-maximal inhibitory concentration (IC50) was found to be 9.98 nM. As to `CCCC[C@H]1C(=O)N(C)[C@@H](CCCC)C(=O)N[C@@H](CC(C)C)C(=O)N[C@H](C(=O)NCC(N)=O)CSCC(=O)N[C@@H](Cc2ccc(O)cc2)C(=O)N(C)[C@@H](C)C(=O)N[C@@H](CC(N)=O)C(=O)N2CCC[C@H]2C(=O)N[C@@H](CNC(=N)c2ccccc2)C(=O)N[C@@H](CC(C)C)C(=O)N2C[C@H](O)C[C@H]2C(=O)N[C@@H](Cc2c[nH]c3ccccc23)C(=O)N[C@@H](CCNC(=N)c2ccccc2)C(=O)N[C@@H](Cc2cn(CC(=O)O)c3ccccc23)C(=O)N1C` [Example 1019] ({CH2CO}-Y[NMeA]NP[X40]L[Hyp]W[X41][Trp(1-CH2COOH)][NMeNle][NMeNle]LCG-NH2; thioether N-14), the IC50 was 3.4 nM.

On to `CCCC[C@H]1C(=O)N(C)[C@@H](CCCC)C(=O)N[C@@H](CC(C)C)C(=O)N[C@H](C(=O)NCC(N)=O)CSCC(=O)N[C@@H](Cc2ccc(O)cc2)C(=O)N(C)[C@@H](C)C(=O)N[C@@H](CC(N)=O)C(=O)N2CCC[C@H]2C(=O)N[C@@H](CNC(=O)Nc2cccc(Oc3ccccc3)c2)C(=O)N[C@@H](CC(C)C)C(=O)N2C[C@H](O)C[C@H]2C(=O)N[C@@H](Cc2c[nH]c3ccccc23)C(=O)N[C@@H](CCNC(=O)Nc2cccc(Oc3ccccc3)c2)C(=O)N[C@@H](Cc2cn(CC(=O)O)c3ccccc23)C(=O)N1C` [Example 1020] ({CH2CO}-Y[NMeA]NP[Dap]([CO-X36])L[Hyp]W[Dab]([CO-X36])[Trp(1-CH2COOH)][NMeNle][NMeNle]LCG-NH2; thioether N-14), for which the IC50 stood at 24 nM.

Consider `CCCC[C@H]1C(=O)N(C)[C@@H](CCCC)C(=O)N[C@@H](CC(C)C)C(=O)N[C@H](C(=O)NCC(N)=O)CSCC(=O)N[C@@H](Cc2ccc(O)cc2)C(=O)N(C)[C@@H](C)C(=O)N[C@@H](CC(N)=O)C(=O)N2CCC[C@H]2C(=O)N[C@@H](CNC(=S)Nc2ccccn2)C(=O)N[C@@H](CC(C)C)C(=O)N2C[C@H](O)C[C@H]2C(=O)N[C@@H](Cc2c[nH]c3ccccc23)C(=O)N[C@@H](CCNC(=S)Nc2ccccn2)C(=O)N[C@@H](Cc2cn(CC(=O)O)c3ccccc23)C(=O)N1C` [Example 1021] ({CH2CO}-Y[NMeA]NP[Dap](X21)L[Hyp]W[Dab](X21)[Trp(1-CH2COOH)][NMeNle][NMeNle]LCG-NH2; thioether N-14), for which the IC50 worked out at 4.2 nM. On the same count and under the same terms, under `CCCC[C@H]1C(=O)N(C)[C@@H](CCCC)C(=O)N[C@@H](CC(C)C)C(=O)N[C@H](C(=O)NCC(N)=O)CSCC(=O)N[C@@H](Cc2ccc(O)cc2)C(=O)N(C)[C@@H](C)C(=O)N[C@@H](CC(N)=O)C(=O)N2CCC[C@H]2C(=O)N[C@@H](CNC(=O)Nc2ccc(Oc3ccccc3)cc2)C(=O)N[C@@H](CC(C)C)C(=O)N2C[C@H](O)C[C@H]2C(=O)N[C@@H](Cc2c[nH]c3ccccc23)C(=O)N[C@@H](CCNC(=O)Nc2ccc(Oc3ccccc3)cc2)C(=O)N[C@@H](Cc2cn(CC(=O)O)c3ccccc23)C(=O)N1C` [Example 1023] ({CH2CO}-Y[NMeA]NP[Dap]([CO-X29])L[Hyp]W[Dab]([CO-X29])[Trp(1-CH2COOH)][NMeNle][NMeNle]LCG-NH2; thioether N-14) stands 32 nM; under `CCCC[C@H]1C(=O)N(C)[C@@H](CCCC)C(=O)N[C@@H](CC(C)C)C(=O)N[C@H](C(=O)NCC(N)=O)CSCC(=O)N[C@@H](Cc2ccc(O)cc2)C(=O)N(C)[C@@H](C)C(=O)N[C@@H](CC(N)=O)C(=O)N2CCC[C@H]2C(=O)N[C@@H](CNC(=S)Nc2ccc([N+](=O)[O-])cc2)C(=O)N[C@@H](CC(C)C)C(=O)N2C[C@H](O)C[C@H]2C(=O)N[C@@H](Cc2c[nH]c3ccccc23)C(=O)N[C@@H](CCN)C(=O)N[C@@H](Cc2cn(CC(=O)O)c3ccccc23)C(=O)N1C` [Example 1024] ({CH2CO}-Y[NMeA]NP[Dap](X13)L[Hyp]W[Dab][Trp(1-CH2COOH)][NMeNle][NMeNle]LCG-NH2; thioether N-14), 3.2 nM.

For `CCCC[C@H]1C(=O)N(C)[C@@H](CCCC)C(=O)N[C@@H](CC(C)C)C(=O)N[C@H](C(=O)NCC(N)=O)CSCC(=O)N[C@@H](Cc2ccc(O)cc2)C(=O)N(C)[C@@H](C)C(=O)N[C@@H](CC(N)=O)C(=O)N2CCC[C@H]2C(=O)N[C@@H](CNC(=S)Nc2ccc(OCC)cc2)C(=O)N[C@@H](CC(C)C)C(=O)N2C[C@H](O)C[C@H]2C(=O)N[C@@H](Cc2c[nH]c3ccccc23)C(=O)N[C@@H](CCN)C(=O)N[C@@H](Cc2cn(CC(=O)O)c3ccccc23)C(=O)N1C` [Example 1026] ({CH2CO}-Y[NMeA]NP[Dap](X86)L[Hyp]W[Dab][Trp(1-CH2COOH)][NMeNle][NMeNle]LCG-NH2; thioether N-14), the IC50 was found to be 4.3 nM. Same read-out and setting: the value for `CCCC[C@H]1C(=O)N(C)[C@@H](CCCC)C(=O)N[C@@H](CC(C)C)C(=O)N[C@H](C(=O)NCC(N)=O)CSCC(=O)N[C@@H](Cc2ccc(O)cc2)C(=O)N(C)[C@@H](C)C(=O)N[C@@H](CC(N)=O)C(=O)N2CCC[C@H]2C(=O)N[C@@H](CNC(=S)Nc2ccc(OCC)cc2)C(=O)N[C@@H](CC(C)C)C(=O)N2C[C@H](O)C[C@H]2C(=O)N[C@@H](Cc2c[nH]c3ccccc23)C(=O)N[C@@H](CCNC(=S)Nc2ccc(OCC)cc2)C(=O)N[C@@H](Cc2cn(CC(=O)O)c3ccccc23)C(=O)N1C` [Example 1027] ({CH2CO}-Y[NMeA]NP[Dap](X86)L[Hyp]W[Dab](X86)[Trp(1-CH2COOH)][NMeNle][NMeNle]LCG-NH2; thioether N-14) was 3.7 nM.
